Test results published in ChEMBL document CHEMBL5260845, “Flavone-based arylamides as potential anticancers: Design, synthesis and in vitro cell-based/cell-free evaluations” (2020).
Calls of active or inactive are those of the source. The rule behind the calls is not given here.

Experiments:
SNB-19 = test: Antiproliferative activity against human SNB-19 cells assessed as cell growth inhibition at 10 uM by SRB assay; format: functional, cell-based
RPMI-8226 [1] = test: Antiproliferative activity against human RPMI-8226 cells assessed as cell growth inhibition at 10 uM by SRB assay relative to control; format: functional
SF-295 = test: Antiproliferative activity against human SF-295 cells assessed as cell growth inhibition at 10 uM by SRB assay; format: functional, cell-based
SF-539 = test: Antiproliferative activity against human SF-539 cells assessed as cell growth inhibition at 10 uM by SRB assay; format: functional, cell-based
U-251 = test: Antiproliferative activity against human U-251 cells assessed as cell growth inhibition at 10 uM by SRB assay; format: functional, cell-based
SF-268 = test: Antiproliferative activity against human SF-268 cells assessed as cell growth inhibition at 10 uM by SRB assay; format: functional, cell-based
SNB-75 = test: Antiproliferative activity against human SNB-75 cells assessed as cell growth inhibition at 10 uM by SRB assay; format: functional, cell-based
CCRF-CEM [2] = test: Antiproliferative activity against human CCRF-CEM cells assessed as cell growth inhibition at 10 uM by SRB assay; format: functional, cell-based
HL-60 [3] = test: Antiproliferative activity against human HL-60 cells assessed as cell growth inhibition at 10 uM by SRB assay; format: functional, cell-based
K562 [4] = test: Antiproliferative activity against human K562 cells assessed as cell growth inhibition at 10 uM by SRB assay; format: functional, cell-based
MOLT-4 [5] = test: Antiproliferative activity against human MOLT-4 cells assessed as cell growth inhibition at 10 uM by SRB assay; format: functional, cell-based
RPMI-8226 [6] = test: Antiproliferative activity against human RPMI-8226 cells assessed as cell growth inhibition at 10 uM by SRB assay; format: functional, cell-based
SR [7] = test: Antiproliferative activity against human SR cells assessed as cell growth inhibition at 10 uM by SRB assay; format: functional, cell-based
EKVX = test: Antiproliferative activity against human EKVX cells assessed as cell growth inhibition at 10 uM by SRB assay; format: functional
HOP-92 = test: Antiproliferative activity against human HOP-92 cells assessed as cell growth inhibition at 10 uM by SRB assay; format: functional, cell-based
NCI-H226 = test: Antiproliferative activity against human NCI-H226 cells assessed as cell growth inhibition at 10 uM by SRB assay; format: functional
NCI-H23 = test: Antiproliferative activity against human NCI-H23 cells assessed as cell growth inhibition at 10 uM by SRB assay; format: functional
NCI-H522 = test: Antiproliferative activity against human NCI-H522 cells assessed as cell growth inhibition at 10 uM by SRB assay; format: functional, cell-based
SK-MEL-2 = test: Antiproliferative activity against human SK-MEL-2 cells assessed as cell growth inhibition at 10 uM by SRB assay relative to control; format: functional; details: Homo sapiens, SK-MEL-2, dose 10 µM
UO-31 = test: Antiproliferative activity against human UO-31 cells assessed as inhibition of cell growth at 10 uM by SRB assay relative to control; format: functional
T47D = test: Antiproliferative activity against estrogen receptor positive human T47D cells assessed as inhibition of cell growth at 10 uM by SRB assay relative to control; format: functional
Hs-578T = test: Antiproliferative activity against human Hs-578T cells assessed as inhibition of cell growth at 10 uM by SRB assay; format: functional, cell-based
CCRF-CEM [8] = test: Antiproliferative activity against human CCRF-CEM cells assessed as cell growth inhibition at 10 uM by SRB assay relative to control; format: functional
HL-60 [9] = test: Antiproliferative activity against human HL-60 cells assessed as cell growth inhibition at 10 uM by SRB assay relative to control; format: functional
K562 [10] = test: Antiproliferative activity against human K562 cells assessed as cell growth inhibition at 10 uM by SRB assay relative to control; format: functional
MOLT-4 [11] = test: Antiproliferative activity against human MOLT-4 cells assessed as cell growth inhibition at 10 uM by SRB assay relative to control; format: functional
SR [12] = test: Antiproliferative activity against human SR cells assessed as cell growth inhibition at 10 uM by SRB assay relative to control; format: functional
OVCAR-4 = test: Antiproliferative activity against human OVCAR-4 cells assessed as cell growth inhibition at 10 uM by SRB assay relative to control; format: functional
SK-OV-3 = test: Antiproliferative activity against human SK-OV-3 cells assessed as inhibition of cell growth at 10 uM by SRB assay relative to control; format: functional

| SMILES | inhibition at 10 µM (RPMI-8226 [1]) [%] | inhibition (SF-295) | inhibition at 10 µM (EKVX) [%] | inhibition (HOP-92) | inhibition at 10 µM (NCI-H226) [%] | inhibition at 10 µM (NCI-H23) [%] | inhibition (NCI-H522) | inhibition (UO-31) | inhibition (Hs-578T) | inhibition at 10 µM (CCRF-CEM [8]) [%] | inhibition at 10 µM (HL-60 [9]) [%] | inhibition at 10 µM (K562 [10]) [%] | inhibition at 10 µM (MOLT-4 [11]) [%] | inhibition at 10 µM (SR [12]) [%] | further results |
| --- | --- | --- | --- | --- | --- | --- | --- | --- | --- | --- | --- | --- | --- | --- | --- |
| COc1cc2oc(-c3ccc(NC(=O)c4cccc(Br)c4)cc3)cc(=O)c2c(O)c1OC | 82.6 | inactive | – | – | – | – | – | – | – | – | – | – | – | – | inhibition (SNB-19): inactive; inhibition (SF-539): inactive; inhibition (U-251): inactive; inhibition (SF-268): inactive; inhibition (SNB-75): inactive |
| COc1cc2oc(-c3cccc(NC(=O)c4ccc(F)cc4)c3)cc(=O)c2c(OC)c1OC | – | Active | < 50 | Active | < 50 | < 50 | Active | Active | Active | – | – | – | – | – | inhibition (CCRF-CEM [2]): Active; inhibition (HL-60 [3]): Active; inhibition (K562 [4]): Active; inhibition (MOLT-4 [5]): Active; inhibition (RPMI-8226 [6]): Active; inhibition (SR [7]): Active; inhibition at 10 µM (SK-MEL-2): ≤ 46%; inhibition at 10 µM (T47D): 51.3% |
| COc1cc2oc(-c3ccc(NC(=O)c4ccc(F)cc4)cc3)cc(=O)c2c(OC)c1OC | ≤ 42.6 | Active | < 50 | Active | < 50 | < 50 | Active | Active | Active | ≤ 42.6 | ≤ 42.6 | ≤ 42.6 | ≤ 42.6 | ≤ 42.6 | – |
| COc1cc2oc(-c3ccc(NC(=O)c4ccc(Cl)cc4)cc3)cc(=O)c2c(OC)c1OC | ≤ 42.6 | Active | < 50 | Active | < 50 | < 50 | Active | Active | Active | ≤ 42.6 | ≤ 42.6 | ≤ 42.6 | ≤ 42.6 | ≤ 42.6 | – |
| COc1cc2oc(-c3ccc(NC(=O)c4ccc(C(F)(F)F)cc4)cc3)cc(=O)c2c(OC)c1OC | ≤ 42.6 | Active | < 50 | Active | < 50 | < 50 | Active | Active | Active | ≤ 42.6 | ≤ 42.6 | ≤ 42.6 | ≤ 42.6 | ≤ 42.6 | – |
| CC(=O)O[C@H]1C(=O)[C@@]2(C)[C@H]([C@H](OC(=O)c3ccccc3)[C@]3(O)C[C@H](OC(=O)[C@H](O)[C@@H](NC(=O)c4ccccc4)c4ccccc4)C(C)=C1C3(C)C)[C@]1(OC(C)=O)CO[C@@H]1C[C@@H]2O [PACLITAXEL] | – | – | – | – | – | – | – | – | – | – | – | – | – | – | inhibition at 10 µM (OVCAR-4): 113%; inhibition at 10 µM (SK-OV-3): 57.1% |
